Results reported in patent US20070249620A1, “Urea Derivative” (priority 2004, published 2007).

Assays:
[1] = target: T1, mouse DGAT1 (Mus musculus, UniProt Q9Z2A7); experiment: DGAT1 inhibitory effect test (microsome fraction, [14C]-oleoyl-CoA, triglyceride radioactivity by TLC); type: biochemical; conditions: 0.5 h; concentration of the test compound 0.1 μg/ml; mouse DGAT1 microsomes, 23° C., 30 minutes; read-out: Inhibitory ratio
T1 construct: made in house; host or cells: insect cells (High Five, Sf9, Sf21, etc.), baculovirus expression system (Invitrogen)
T1 sequence (Q9Z2A7 1-498): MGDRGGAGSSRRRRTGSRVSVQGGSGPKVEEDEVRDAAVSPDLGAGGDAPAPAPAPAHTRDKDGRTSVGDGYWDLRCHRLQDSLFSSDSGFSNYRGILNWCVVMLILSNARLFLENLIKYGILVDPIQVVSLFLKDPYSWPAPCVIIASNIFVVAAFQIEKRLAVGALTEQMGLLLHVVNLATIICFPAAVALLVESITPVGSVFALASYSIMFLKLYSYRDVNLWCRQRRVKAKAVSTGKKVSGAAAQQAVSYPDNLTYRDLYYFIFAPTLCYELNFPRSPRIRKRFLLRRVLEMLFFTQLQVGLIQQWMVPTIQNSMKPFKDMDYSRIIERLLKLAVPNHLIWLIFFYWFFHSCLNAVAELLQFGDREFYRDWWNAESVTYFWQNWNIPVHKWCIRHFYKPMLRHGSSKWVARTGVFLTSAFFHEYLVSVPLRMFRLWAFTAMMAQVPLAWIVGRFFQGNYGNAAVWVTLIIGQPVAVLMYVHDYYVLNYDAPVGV
In short: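 Inhibition was scored from radiolabelled triglyceride separated by TLC, relative to vehicle and net of a 0-min background. The reaction ran for 30 min at room temperature (23 °C) in Tris-HCl pH 8.0 with MgCl2, BSA and Triton X-100. Substrates were 30 μM [14C]-oleoyl-CoA and 0.5 mM dioleoylglycerol, with mouse DGAT1 microsomes from baculovirus-infected insect cells as enzyme.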

Row | SMILES | melting point [°C] | inhibition at 0.1 µg/mL [1] [%]
1 | Cc1nc(NC(=O)Nc2ccc(N3CCN(C(=O)Nc4cc(OCCO)ccc4Cl)CC3)nc2)sc1C [Example 237, 4-{5-(3-(4,5-dimethyl-thiazol-2-yl)-ureido)-pyridin-2-yl}-piperazine-1-carboxylic acid {2-chloro-5-(2-hydroxy-ethoxy)-phenyl}-amide] | 128 to 129 | ≥ 50
2 | CCOc1ccccc1NC(=O)Nc1ccc(N2CCN(C(=O)Nc3c(Cl)cccc3Cl)CC2)cc1 [Example 133, 4-{4-[3-(2-ethoxy-phenyl)-ureido]-phenyl}-piperazine-1-carboxylic acid (2,6-dichloro-phenyl)-amide] | 164 to 166 | ≥ 50
3 | COc1ccc(C)cc1NC(=O)Nc1ccc(N2CCN(C(=O)Nc3ccc(NC(C)=O)cc3C(F)(F)F)CC2)nc1 [Example 188, 4-{5-[3-(2-methoxy-5-methyl-phenyl)-ureido]-pyridin-2-yl}-piperazine-1-carboxylic acid (4-acetylamino-2-trifluoromethyl-phenyl)-amide] | 175 to 177 | ≥ 50
4 | COc1cc(NC(=O)Nc2ccc(C3=CCN(C(=O)Nc4ccc(OCC(O)CO)cc4Cl)CC3)cc2)cc(OC)c1 (centres unmarked) [Example 287, 4-{4-[3-(3,5-dimethoxy-phenyl)-ureido]-phenyl}-3,6-dihydro-2H-pyridine-1-carboxylic acid [2-chloro-4-(2,3-dihydroxy-propoxy)-phenyl]-amide] | 108 to 111 | ≥ 50
5 | CCc1csc(NC(=O)Nc2ccc(N3CCN(C(=O)Nc4ccc(OCCO)cc4C(F)(F)F)CC3)cc2)n1 [Example 246, 4-{4-[3-(4-ethyl-thiazol-2-yl)-ureido]-phenyl}-piperazine-1-carboxylic acid [4-(2-hydroxy-ethoxy)-2-trifluoromethyl-phenyl]-amide] | 124 to 125 | ≥ 50
6 | COc1ccc(Cl)cc1NC(=O)Nc1ccc(N2CCN(C(=O)Nc3c(F)cccc3F)CC2)cc1 [Example 77, 4-{4-[3-(5-chloro-2-methoxy-phenyl)-ureido]-phenyl}-piperazine-1-carboxylic acid (2,6-difluoro-phenyl)-amide] | 230 to 232 | ≥ 50
7 | CCOc1ccccc1NC(=O)Nc1ccc(N2CCN(C(=O)Nc3ncccc3C)CC2)cc1 [Example 304, 4-{4-[3-(2-ethoxy-phenyl)-ureido]-phenyl}-piperazine-1-carboxylic acid (3-methyl-pyridin-2-yl)-amide] | 110 to 112 | ≥ 50
8 | O=C(Nc1ccc(N2CCN(C(=O)Nc3ccc(OCCO)cc3C(F)(F)F)CC2)cc1)Nc1ccccc1OC(F)F [Example 245, 4-{4-[3-(2-difluoromethoxy-phenyl)-ureido]-phenyl}-piperazine-1-carboxylic acid [4-(2-hydroxy-ethoxy)-2-trifluoromethyl-phenyl]-amide] | 118 to 120 | ≥ 50
9 | COc1ccc(C)cc1NC(=O)Nc1ccc2c(c1)CCN(C(=O)Oc1ccc(C(=O)O)cc1Cl)C2 [Example 397, 6-[3-(2-methoxy-5-methyl-phenyl)-ureido]-3,4-dihydro-1H-isoquinoline-2-carboxylic acid 4-carboxy-2-chloro-phenyl ester] | 196 to 198 | ≥ 50
10 | COc1ccc(C)cc1NC(=O)Nc1ccc(N2CCN(C(=O)Nc3c(F)cccc3F)CC2)nc1 [Example 152, 4-{5-[3-(2-methoxy-5-methyl-phenyl)-ureido]-pyridin-2-yl}-piperazine-1-carboxylic acid (2,6-difluoro-phenyl)-amide] | 237 to 239 | ≥ 50
11 | COc1ccc(F)cc1NC(=O)Nc1ccc(N2CCN(C(=O)Nc3c(C)cccc3C)CC2)nc1 [Example 149, 4-{5-[3-(5-fluoro-2-methoxy-phenyl)-ureido]-pyridin-2-yl}-piperazine-1-carboxylic acid (2,6-dimethyl-phenyl)-amide] | 226 to 228 | ≥ 50
12 | COc1ccc(F)cc1NC(=O)Nc1ccc(N2CCN(C(=O)Nc3ccccc3C(F)(F)F)CC2)cc1 [Example 96, 4-{4-[3-(5-fluoro-2-methoxy-phenyl)-ureido]-phenyl}-piperazine-1-carboxylic acid (2-trifluoromethyl-phenyl)-amide] | 229 to 230 | ≥ 50
13 | COc1cc(NC(=O)Nc2ccc(N3CCN(C(=O)Nc4ncccc4C)CC3)cc2)cc(OC)c1 [Example 306, 4-{4-[3-(3,5-dimethoxy-phenyl)-ureido]-phenyl}-piperazine-1-carboxylic acid (3-methyl-pyridin-2-yl)-amide] | 188 to 190 | ≥ 50

More lines, now with the values ahead:

Row | melting point [°C] | inhibition at 0.1 µg/mL [1] [%] | SMILES
14 | 222 to 225 | ≥ 50 | CCOc1ccc(C)cc1NC(=O)Nc1ccc(N2CCN(C(=O)Nc3c(C)cccc3C)CC2)cc1 [Example 118, 4-{4-[3-(2-ethoxy-5-methyl-phenyl)-ureido]-phenyl}-piperazine-1-carboxylic acid (2,6-dimethyl-phenyl)-amide]
15 | 190 to 192 | ≥ 50 | CCOc1ccc(C)cc1NC(=O)Nc1ccc(N2CCN(C(=O)Nc3ccccc3C)CC2)cc1 [Example 84, 4-{4-[3-(2-ethoxy-5-methyl-phenyl)-ureido]-phenyl}-piperazine-1-carboxylic acid o-tolylamide]
16 | 178 to 180 | ≥ 50 | COc1ccc(C)cc1NC(=O)Nc1ccc(N2CCN(C(=O)Nc3ccc(C(=O)O)cc3C)CC2)cc1 [Example 180, 4-[(4-{4-[3-(2-methoxy-5-methyl-phenyl)-ureido]-phenyl}-piperazine-1-carbonyl)-amino]-3-methyl-benzoic acid]
17 | 210 to 212 | ≥ 50 | COc1ccc(C)cc1NC(=O)Nc1ccc(N2CCN(C(=O)Nc3ccccc3C#N)CC2)cc1 [Example 61, 4-{4-[3-(2-methoxy-5-methyl-phenyl)-ureido]-phenyl}-piperazine-1-carboxylic acid (2-cyano-phenyl)-amide]
18 | 214 to 215 | ≥ 50 | COc1ccc(C)cc1NC(=O)Nc1ccc(N2CCN(C(=O)Nc3ccc(C)cc3Cl)CC2)nc1 [Example 147, 4-{5-[3-(2-methoxy-5-methyl-phenyl)-ureido]-pyridin-2-yl}-piperazine-1-carboxylic acid (2-chloro-4-methyl-phenyl)-amide]
19 | 119 to 122 | ≥ 50 | CCOc1ccc(C)cc1NC(=O)Nc1ccc(N2CCN(C(=O)Nc3ccc(C)cc3Cl)CC2)cc1 [Example 120, 4-{4-[3-(2-ethoxy-5-methyl-phenyl)-ureido]-phenyl}-piperazine-1-carboxylic acid (2-chloro-4-methyl-phenyl)-amide]
20 | 213 to 215 | ≥ 50 | COc1ccc(C)cc1NC(=O)Nc1ccc(N2CCN(C(=O)Nc3c(C)cccc3[N+](=O)[O-])CC2)cc1 [Example 60, 4-{4-[3-(2-methoxy-5-methyl-phenyl)-ureido]-phenyl}-piperazine-1-carboxylic acid (2-methyl-6-nitro-phenyl)-amide]
21 | 206 to 208 | ≥ 50 | CCOc1ccc(C)cc1NC(=O)Nc1ccc(N2CCN(C(=O)Nc3ncccc3C)CC2)cc1 [Example 311, 4-{4-[3-(2-ethoxy-5-methyl-phenyl)-ureido]-phenyl}-piperazine-1-carboxylic acid (3-methyl-pyridin-2-yl)-amide]
22 | 152 to 154 | ≥ 50 | COc1ccc(C)cc1NC(=O)Nc1ccc(N2CCN(C(=O)Nc3ccc(OCCO)cc3Cl)CC2)cc1 [Example 248, 4-{4-[3-(2-methoxy-5-methyl-phenyl)-ureido]-phenyl}-piperazine-1-carboxylic acid [2-chloro-4-(2-hydroxy-ethoxy)-phenyl]-amide]
23 | 172 to 173 | ≥ 50 | CCCCc1ccc(NC(=O)N2CCN(c3ccc(NC(=O)Nc4cc(C)ccc4OC)cc3)CC2)c(C)c1 [Example 75, 4-{4-[3-(2-methoxy-5-methyl-phenyl)-ureido]-phenyl}-piperazine-1-carboxylic acid (4-butyl-2-methyl-phenyl)-amide]
24 | 152 to 154 | ≥ 50 | COc1ccc(C)cc1NC(=O)Nc1ccc(N2CCN(C(=O)Nc3ccc(NC(C)=O)cc3C(F)(F)F)CC2)cc1 [Example 173, 4-{4-[3-(2-methoxy-5-methyl-phenyl)-ureido]-phenyl}-piperazine-1-carboxylic acid (4-acetylamino-2-trifluoromethyl-phenyl)-amide]
25 | 225 to 227 | ≥ 50 | COc1ccc(Cl)cc1NC(=O)Nc1ccc(N2CCN(C(=O)Nc3c(C)cccc3Cl)CC2)cc1 [Example 79, 4-{4-[3-(5-chloro-2-methoxy-phenyl)-ureido]-phenyl}-piperazine-1-carboxylic acid (2-chloro-6-methyl-phenyl)-amide]
